One data set addresses T1, CB1 receptors (Mus musculus, UniProt P47746).
T1 construct: the complete brain (excluding the cerebellum) and the spleen were quickly dissected and kept in ice; from tissue; host or cells: mouse brain (excluding cerebellum), membrane preparation
Put plainly: biochemical. In kind it is binding. How it is done: (§1) The affinity of the synthesized compounds towards the CB1 and CB2 cannabinoidergic receptors was evaluated in vitro by radioreceptor binding studies using the method reported hereinunder.
(§2) The technique of the receptor binding allows to establish if, and with which affinity and specificity, a specific compound binds to a particular receptor. To evaluate the affinity of a specific compound to a particular receptor it is necessary to challenge in a particular tissue preparation wherein those specific receptors are present the compound to be tested with a radioactive labelled compound whose affinity for the same receptors is known. […] The amount of radioactivity present in the receptor-compound complex allows furthermore to estimate with great accuracy the amount of compound bound to the receptor. By said method it is therefore possible to establish quickly the affinity of a new compound towards a specific receptor and thus to determine its pharmacological activity. With the same experimental protocol it is possible to evaluate the affinity of the compound towards other receptors and thus establish its specificity degree toward said other receptors.
(§3) The food and water were ad libitum.
(§4) The procedure adopted, based on the use of the compound [^3H]-CP-55,940 (New England Nuclear, Boston, Mass., USA), requires the use of the mouse brain as biological tissue for the evaluation of the affinity towards the CB1 receptors and of the mouse spleen for the affinity assay for the CB2 receptors.
(§5) The animals were sacrificed by cervical dislocation and the complete brain (excluding the cerebellum) and the spleen were quickly dissected and kept in ice.
(§6) The tissue was homogenized in 15 volumes (weight/volume) of TME buffer (50 Mm Tris, 1 mM EDTA and 3 mM MgCl2, pH 7.4) by an Ultra-Turrax and subsequently centrifuged for 10 minutes at 1086×g in a centrifuge refrigerated at 4° C. The recovered supernatant was centrifuged at 45,000×g for 30 minutes at 4° C. by using a Beckman SW41 rotor and the obtained pellet was resuspended in 50 volumes of TME.
(§7) The thus obtained membranes (50-80 μg of proteins) were incubated in the presence of 1 nM of [^3H]-CP55.940 for 1 hour at 30° C. in a final volume of 0.5 ml of TME buffer containing 5 mg/ml of bovine serum albumin (BSA). The non specific binding was measured in the presence of CP55.940 at a 1 μM concentration.
(§8) All the experiments were carried out in polypropylene test tubes pretreated with Sigma-Cote (Sigma Chemical Co. Ltd., Poole, UK) for reducing non specific binding.
(§9) In order to determine the competitive inhibition binding curves, eight different concentrations of each compound were used.
(§10) Incubation was stopped by addition of TME buffer (at 4° C.) containing 5 mg/ml of BSA, and subsequent filtration under vacuum by Whatman GFC filters pretreated with 0.5% of polyethylamine (PEI) and by using a filtering device (Brandell, Gaithersburg, Md., USA). The filters were washed 3 times with […] of Tris HCl buffer (pH 7.4, 4° C.) containing 1 mg/ml of BSA and separately placed in plastic vials containing 4 ml of scintillating liquid (Ultima Gold MV, Packard).
(§11) The radioactivity present in the filters was determined by a scintillator spectrophotometer (Tricarb® 2100, Packard, Meridien, USA).
(§12) Protein determination was carried out by the Bradford method by using the protocol and the reactants supplied by Bio-Rad (Milano, Italy).

The target of the next data set is T2, CB2 receptors (Mus musculus, UniProt P47936).
T2 construct: the complete brain (excluding the cerebellum) and the spleen were quickly dissected and kept in ice; from tissue; host or cells: mouse spleen, membrane preparation
Kind of data set: biochemical. In kind it is binding. The protocol:
as §1, §2, §3, §4, §5, §6, §7, §8, §9, §10, §11, §12

The test system of a further data set is old DBA/2J mice. Kind of data set: Reduction of intraocular pressure (IOP) after application to the eye, TONOLab tonometer. In kind it is in vivo. The following applies: versus basal IOP. From the text:
The main risk factor in the glaucoma is represented by the high intraocular pressure (IOP). See for instance: Libby R. T. et al., Vis Neurosci. 2005 Sep.-Oct., 22(5):637-48 and Tomida I. et al., Br. J. Opthalmol. 2004 May, 88(5):708-13.
By using the animal model of old DBA/2J mice (see above) it has been evaluated the efficacy of the compound obtained in example 3.1 in reducing the IOP. As said, this compound has a good affinity towards the CB1 receptors in vitro (example 4) and a CB1 agonist action in vivo (example 5). The intraocular pressure has been determined by a TONOLab Tonometer (Tiolat Oy), as reported by M. E. Pease et al. in J. Glaucoma, 2006 December, 15(6):512-519. The compound was dispersed in the commercial emulsion Tocrisolve™, (Tocris), at a concentration of […] and applied to the eye of old DBA/2J mice (8-10 month age; basal IOP comprised between 19.0 and 22.5 mmHg). The applied emulsion volumes were such that the compound doses resulted, respectively, of 100 μg or 50 μg. WIN 55212-2 was dispersed in Tocrisolve™at the concentration of 5 mg/ml and was the reference cannabinoidergic compound. The determination of the ocular pressure was carried out every 30 minutes up to two hours starting from the administration. The obtained results (average of 6 measurements at each time for experimental groups of 8-10 animals for group/dose) are reported in Table 3. IOP decrease was expressed in percent with respect to the basal value.

For a further data set, the system named is men. The following applies: local administration in the eye; cited from earlier work.

SMILES strings stand for the structures.

T2 sequence (P47936 whole entry): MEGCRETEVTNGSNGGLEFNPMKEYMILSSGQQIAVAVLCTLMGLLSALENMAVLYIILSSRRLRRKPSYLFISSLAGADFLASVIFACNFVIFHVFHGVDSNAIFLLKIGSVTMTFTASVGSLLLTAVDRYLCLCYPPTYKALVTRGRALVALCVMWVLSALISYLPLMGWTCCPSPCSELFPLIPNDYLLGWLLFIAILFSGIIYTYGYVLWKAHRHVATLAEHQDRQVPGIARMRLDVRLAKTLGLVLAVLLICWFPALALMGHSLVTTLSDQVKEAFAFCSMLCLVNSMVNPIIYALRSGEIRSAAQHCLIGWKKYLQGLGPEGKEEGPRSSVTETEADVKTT
T1 sequence (P47746 whole entry): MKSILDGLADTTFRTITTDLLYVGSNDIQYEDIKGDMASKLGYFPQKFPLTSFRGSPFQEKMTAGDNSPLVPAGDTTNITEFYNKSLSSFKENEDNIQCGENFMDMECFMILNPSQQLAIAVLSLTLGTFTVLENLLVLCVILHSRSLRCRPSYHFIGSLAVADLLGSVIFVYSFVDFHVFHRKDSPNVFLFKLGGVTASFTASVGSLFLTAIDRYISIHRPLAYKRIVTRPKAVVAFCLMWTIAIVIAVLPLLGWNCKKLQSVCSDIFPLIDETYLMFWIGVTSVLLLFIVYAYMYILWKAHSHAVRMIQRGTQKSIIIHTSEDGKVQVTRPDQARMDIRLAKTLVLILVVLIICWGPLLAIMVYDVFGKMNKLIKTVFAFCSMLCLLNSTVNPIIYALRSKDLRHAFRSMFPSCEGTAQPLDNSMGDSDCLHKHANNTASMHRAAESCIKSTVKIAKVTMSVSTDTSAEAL

For orientation: Ki means the equilibrium dissociation constant of an inhibitor or competing ligand from its target. A high value points to a looser hold on the target. The melting point is the temperature of the solid-liquid transition. As to `Cc1csc2c1Cc1c(C(=O)NCC3CCC4CC3C4(C)C)nn(-c3ccc(Cl)cc3Cl)c1-2` (stereo not drawn) [Example 3.7, N-myrtanyl-5-methyl-1-(2′,4′-dichlorophenyl)-1,4-dihydro-thieno[3′,2′:4,5]cyclopenta[1,2-c]pyrazol-3-carboxamide], the melting point lay within 112 to 113 °C. The Ki at CB1 receptors worked out at 919 ± 226 nM. Further, the inhibition constant (Ki) at CB2 receptors is 4.5 ± 0.8 nM.
For `Cc1c(C(=O)c2cccc3ccccc23)c2cccc3c2n1[C@H](CN1CCOCC1)CO3` [WIN 55212-2], the “Intraocular Pressure Decrease” value stood at 4.3% with old DBA/2J mice (50 μg to the eye in Tocrisolve, 30 minutes); 3.0% in the data set on old DBA/2J mice (50 μg to the eye in Tocrisolve, 60 minutes); 2.0% with old DBA/2J mice (50 μg to the eye in Tocrisolve, 90 minutes); 1.9% in the data set with old DBA/2J mice (50 μg to the eye in Tocrisolve, 120 minutes); 23.1% in the data set on old DBA/2J mice (100 μg to the eye in Tocrisolve, 30 minutes); 21.3% in the data set with old DBA/2J mice (100 μg to the eye in Tocrisolve, 60 minutes). In addition, the “Intraocular Pressure Decrease” value was determined as 18.1% in the data set on old DBA/2J mice (100 μg to the eye in Tocrisolve, 90 minutes) and 13.2% in the data set on old DBA/2J mice (100 μg to the eye in Tocrisolve, 120 minutes). Moreover, the “IOP reduction in men” value in the data set with men is “significant IOP reduction”.
